Entries after “also recorded” stand apart in the source; their conditions may differ.
Legend:
dog thrombosis model = conditions: compared with placebo; animals receiving tissue-type plasminogen activator and heparin after thrombus formation; cited from earlier work
[1] = test system: anaesthetized, mechanically ventilated pigs in normoxia (ADP-induced pulmonary vasoconstriction); experiment: Response to simultaneous ADP and cangrelor infusion during normoxia: haemodynamic measurements in pigs (Protocol 4); type: in vivo
Description: (§1) Haemodynamic measurements were performed in six anaesthetized, mechanically ventilated pigs (30.2±0.7 kg) in normoxia (FiO2˜0.21) and hypoxia (FiO2˜0.10) prior to and during right atrial cangrelor infusion at a loading dose of 30 μg/kg/min for 10 min, and then a continuous infusion at 4 μg/kg/min for 80 min. Another six pigs (29.3±0.5 kg) were investigated in normoxia before and during right atrial infusion of ADP at 70 μg/kg/min for ˜7 min; as well as before and during simultaneous ADP and cangrelor infusion for ˜7 min at doses of 70 μg/kg/min and 4 μg/kg/min, respectively, after a cangrelor loading dose of 30 μg/kg/min for 10 min. All data are mean±SEM.
Protocol 4—Response to Simultaneous ADP and Cangrelor Infusion.
(§2) The ˜4-7 min MAP measurement after simultaneous ADP and cangrelor infusion was, however, not different (p=ns) from the measurement with ADP infusion alone. Also, SVR decreased (p<0.024) by 3.2±1.2 WU, as compared to baseline, in response to simultaneous ADP and cangrelor infusion. […] Furthermore, the ˜4-7 min PVR and PCWP measurements after simultaneous ADP and cangrelor infusion were lower (p<0.005 and p<0.022, respectively) than the measurements with ADP infusion alone. Also, the ˜4-7 min SV measurement after simultaneous ADP and cangrelor infusion was higher (p<0.02) than the measurement with ADP infusion alone.

[2] = test system: anaesthetized, mechanically ventilated pigs in hypoxia (hypoxic pulmonary vasoconstriction); experiment: Response to cangrelor during hypoxia: haemodynamic measurements in pigs (Protocol 2); type: in vivo; conditions: for MPAP decrease compared to hypoxia baseline: hypoxia (FiO2˜0.10), mean±SEM
Description: as §1
Protocol 2—Response to Cangrelor During Hypoxia.
Compared to hypoxia baseline, MPAP decreased transiently by 3.3±0.4 (p<0.036) and 3.6±0.6 mmHg (p<0.018), respectively, 10 and 30 min after initiation of cangrelor infusion; but returned to levels not different (p=ns) from baseline 60 and 90 min after initiation of cangrelor infusion. PVR, MRAP, PCWP, MAP, SVR, CO, HR, SV and blood-O2-consumption were unaltered by cangrelor infusion during hypoxia (p=ns).

[3] = test system: anaesthetized, mechanically ventilated pigs in normoxia; experiment: Cangrelor infusion alone during normoxia: haemodynamic measurements in pigs; type: in vivo; conditions: p=ns
Description: as §1, §2

[4] = cited from earlier work
[5] = test system: anaesthetized, mechanically ventilated pigs in normoxia; experiment: Response to ADP infusion during normoxia: haemodynamic measurements in pigs (Protocol 3); type: in vivo
Description: as §1
Protocol 3—Response to ADP During Normoxia.
ADP infusion during normoxia increased MPAP, temporarily to peak at 35.2±1.9 mmHg, 19.3±1.6 mmHg higher (p<0.001) than baseline, to then stabilize at a level 10.4±1.6 mmHg higher (p<0.001) than baseline, and 8.9±1.4 mmHg lower (p<0.001) than the peak, after ˜4-7 min. Also, after ˜4-7 min from initiation of ADP infusion, PVR had increased (p<0.002) by 2.8±0.4 WU and PCWP by 2.5±0.7 mmHg (p<0.019), compared to baseline. ADP infusion during normoxia decreased MAP, first to reach a nadir at 39.8±6.1 mmHg, 48.5±6.0 mmHg lower (p<0.001) than baseline, however, then stabilizing, after ˜4-7 min, at a level not different (p=ns) from, although slightly lower than, baseline, and 41.7±8.9 mmHg higher (p<0.001) than the nadir. MRAP, SVR, CO, HR, SV and blood-O2-consumption were unchanged (p=ns) by ADP infusion during normoxia.

[6] = simultaneous ADP and cangrelor infusion, normoxia
[7] = simultaneous ADP and cangrelor infusion, after ˜4-7 min
[8] = simultaneous ADP and cangrelor infusion, p=ns
[9] = during hypoxia, p=ns, listed as Cangrelor
[10] = ˜4-7 min from initiation of ADP infusion

CCCSc1nc(N[C@@H]2C[C@H]2c2ccc(F)c(F)c2)c2nnn([C@@H]3C[C@H](OCCO)[C@@H](O)[C@H]3O)c2n1 [ticagrelor]
cyclic flow variation (dog thrombosis model): decreased
myocardial flow (dog thrombosis model): improved
reocclusion (dog thrombosis model): decreased

CSCCNc1nc(SCCC(F)(F)F)nc2c1ncn2[C@@H]1O[C@H](COP(=O)(O)OP(=O)(O)C(Cl)(Cl)P(=O)(O)O)[C@@H](O)[C@H]1O [cangrelor]
attenuation of the MPAP peak induced by ADP infusion ([1]; normoxia): 34%
sustained MPAP increase induced by ADP infusion ([1]; normoxia): totally prevented
sustained PVR increase induced by ADP infusion ([1]; normoxia): totally prevented
MPAP transient increase compared to baseline (peak) ([1]; normoxia, simultaneous ADP 70 μg/kg/min and cangrelor 4 μg/kg/min after cangrelor loading dose 30 μg/kg/min for 10 min): 7.3±1.8 mmHg
MPAP peak as share of the peak ADP response without cangrelor ([1]; normoxia, simultaneous ADP and cangrelor infusion): ~66%
SVR decrease compared to baseline ([1]; simultaneous ADP and cangrelor infusion): 3.2±1.2 WU
MAP nadir [1, 6]: 64.9±3.4 mmHg
MAP transient decrease compared to baseline [1, 6]: 19.4±3.1 mmHg
MAP stabilized level, higher than the nadir [1, 7]: 12.9±2.2 mmHg
MAP stabilized level, lower than baseline [1, 7]: 6.5±1.2 mmHg
MPAP level, lower than the peak [1, 7]: 7.4±1.5 mmHg
MPAP compared to baseline ([1]; simultaneous ADP and cangrelor infusion, after ˜4-7 min, p=ns): not different
˜4-7 min MPAP measurement compared to ADP infusion alone ([1]; simultaneous ADP and cangrelor infusion, p<0.002): significantly lower
˜4-7 min PVR measurement compared to ADP infusion alone ([1]; simultaneous ADP and cangrelor infusion, p<0.005): lower
˜4-7 min SV measurement compared to ADP infusion alone ([1]; simultaneous ADP and cangrelor infusion, p<0.02): higher
˜4-7 min PCWP measurement compared to ADP infusion alone ([1]; simultaneous ADP and cangrelor infusion, p<0.022): lower
MAP nadir compared to the nadir response to ADP alone ([1]; simultaneous ADP and cangrelor infusion, p<0.027): significantly higher
CO change compared to baseline [1, 8]: unchanged
HR change compared to baseline [1, 8]: unchanged
MRAP change compared to baseline [1, 8]: unchanged
PCWP change compared to baseline [1, 8]: unchanged
PVR change compared to baseline [1, 8]: unchanged
SV change compared to baseline [1, 8]: unchanged
blood-O2-consumption change compared to baseline [1, 8]: unchanged; also recorded: tended to decrease
˜4-7 min CO measurement compared to ADP infusion alone [1, 8]: neither any differences
˜4-7 min HR measurement compared to ADP infusion alone [1, 8]: neither any differences
˜4-7 min MAP measurement compared to ADP infusion alone [1, 8]: not different
˜4-7 min SVR measurement compared to ADP infusion alone [1, 8]: did not differ
MAP decrease to ADP ([1]; with cangrelor): attenuated
PCWP increase with ADP infusion alone ([1]; with cangrelor): attenuated
trend for a SV decrease with ADP infusion alone ([1]; with cangrelor): attenuated
CO change by cangrelor infusion ([2]; during hypoxia, p=ns): unaltered
HR change by cangrelor infusion ([2]; during hypoxia, p=ns): unaltered
MAP change by cangrelor infusion ([2]; during hypoxia, p=ns): unaltered
MRAP change by cangrelor infusion ([2]; during hypoxia, p=ns): unaltered
PCWP change by cangrelor infusion ([2]; during hypoxia, p=ns): unaltered
PVR change by cangrelor infusion ([2]; during hypoxia, p=ns): unaltered
SV change by cangrelor infusion ([2]; during hypoxia, p=ns): unaltered
SVR change by cangrelor infusion ([2]; during hypoxia, p=ns): unaltered
blood-O2-consumption change by cangrelor infusion ([2]; during hypoxia, p=ns): unaltered
MAP change by cangrelor infusion [2, 9]: without affecting
SVR change by cangrelor infusion [2, 9]: without affecting
blood-O2-consumption change by cangrelor infusion [2, 9]: without affecting
MPAP decrease compared to hypoxia baseline ([2]; 10 min after initiation of cangrelor infusion (30 μg/kg/min for 10 min, then 4 μg/kg/min)): 3.3±0.4 mmHg
MPAP decrease compared to hypoxia baseline ([2]; 30 min after initiation of cangrelor infusion): 3.6±0.6 mmHg
MPAP compared to hypoxia baseline ([2]; hypoxia, 60 and 90 min after initiation of cangrelor infusion, p=ns): not different
MPAP decrease (attenuation of acute HPV) ([2]; hypoxia, 10 min after cangrelor infusion was initiated): ~12%
MPAP decrease (attenuation of acute HPV) ([2]; hypoxia, 30 min after cangrelor infusion was initiated): ~14%
any of the haemodynamic variables [3]: did not alter
time to steady state concentrations in plasma from start of infusion ([4]; bolus 30 μg/kg and infusion 4 μg/kg/min): ≤ 30 min
half-life (clearance from plasma) ([4]; plasma): 3 to 6 min
cyclic flow variation (dog thrombosis model): decreased
myocardial flow (dog thrombosis model): improved
reocclusion (dog thrombosis model): decreased

Nc1ncnc2c1ncn2[C@@H]1O[C@H](COP(=O)(O)OP(=O)(O)O)[C@@H](O)[C@H]1O [ADP, adenosine diphosphate]
MAP nadir ([5]; ADP infusion): 39.8±6.1 mmHg
MAP nadir, lower than baseline ([5]; ADP infusion): 48.5±6.0 mmHg
MPAP peak, higher than baseline ([5]; ADP infusion 70 μg/kg/min): 19.3±1.6 mmHg
MPAP peak ([5]; ADP infusion 70 μg/kg/min, mean±SEM): 35.2±1.9 mmHg
MAP stabilized level, higher than the nadir ([5]; ADP infusion, after ˜4-7 min): 41.7±8.9 mmHg
MPAP stabilized level, higher than baseline ([5]; ADP infusion, after ˜4-7 min): 10.4±1.6 mmHg
MPAP stabilized level, lower than the peak ([5]; ADP infusion, after ˜4-7 min): 8.9±1.4 mmHg
MAP stabilized level compared to baseline ([5]; ADP infusion, after ˜4-7 min, p=ns): not different
CO change by ADP infusion ([5]; p=ns): unchanged; also recorded: tended to decrease
HR change by ADP infusion ([5]; p=ns): unchanged
MRAP change by ADP infusion ([5]; p=ns): unchanged; also recorded: tended to increase
SV change by ADP infusion ([5]; p=ns): unchanged; also recorded: tended to decrease
SVR change by ADP infusion ([5]; p=ns): unchanged
blood-O2-consumption change by ADP infusion ([5]; p=ns): unchanged; also recorded: tended to decrease
PCWP increase compared to baseline [5, 10]: 2.5±0.7 mmHg
PVR increase compared to baseline [5, 10]: 2.8±0.4 WU
